Data reported in US11053259B2, “Crystal of cephalosporin intermediate 7α-methoxy cephalothin and method for preparing same” (QILU ANTIBIOTICS PHARMACEUTICAL CO. LTD., priority 2017, dated 2021).
Where a name gives a salt, the structure may show the parent alone.

Legend:
[1] = 6-month accelerated comparative study on stability; format: physicochemical; conditions: for Appearance / Content / Moisture: 25° C. and RH of 60%
[2] = hygroscopicity and storage stability of the cyclohexylamine salt (statement on existing technology); format: physicochemical

CO[C@@]1(NC(=O)Cc2cccs2)C(=O)N2C(C(=O)O)=C(COC(C)=O)CS[C@@H]21 [listing 1 of 2 here]
stability of appearance, hygroscopicity and content (overall result in words) ([1]; 6-month accelerated testing): better purity and quality stability

CO[C@@]1(NC(=O)Cc2cccs2)C(=O)N2C(C(=O)O)=C(COC(C)=O)CS[C@@H]21 [listing 2 of 2 here]
storage stability [2]: poor storage stability

CO[C@@]1(NC(=O)Cc2cccs2)C(=O)N2C(C(=O)O)=C(COC(C)=O)CS[C@@H]21 [Crystal of 7α-Methoxy Cephalothin, (6R, 7S)-3-acetyloxymethyl-7-methoxy-8-oxo-7-[2-(2-thienyl)acetamido]-5-thia-1-nitrobicyclo [4.2.0] oct-2-ene-2-carboxylic acid]
Appearance ([1]; Month 0): Off-white | Content ([1]; Month 0): 98.2% | Moisture ([1]; Month 0): 0.26% | Appearance ([1]; Month 1): Off-white | Content ([1]; Month 1): 98.2% | Moisture ([1]; Month 1): 0.27% | Appearance ([1]; Month 2): Off-white | Content ([1]; Month 2): 98.1% | Moisture ([1]; Month 2): 0.27% | Appearance ([1]; Month 3): Off-white | Content ([1]; Month 3): 98.1% | Moisture ([1]; Month 3): 0.29% | Appearance ([1]; Month 6): Off-white | Content ([1]; Month 6): 97.9% | Moisture ([1]; Month 6): 0.28%

CO[C@@]1(NC(=O)Cc2cccs2)C(=O)N2C(C(=O)O)=C(COC(C)=O)CS[C@@H]21 [Cyclohexylamine Salt of 7α-Methoxy Cephalothin]
Appearance ([1]; Month 0): Off-white | Content ([1]; Month 0): 78.4% | Moisture ([1]; Month 0): 0.13% | Appearance ([1]; Month 1): Light | Content ([1]; Month 1): 77.5% | Moisture ([1]; Month 1): 0.87% | Appearance ([1]; Month 2): Yellow | Content ([1]; Month 2): 76.3% | Moisture ([1]; Month 2): 1.56% | Appearance ([1]; Month 3): Yellow | Content ([1]; Month 3): 75.1% | Moisture ([1]; Month 3): 1.84% | Appearance ([1]; Month 6): Earthy | Content ([1]; Month 6): 72.4% | Moisture ([1]; Month 6): 2.55% | hygroscopicity [2]: strong hygroscopicity
